# Source: PMC9599816, “Cholesterol Chip for the Study of Cholesterol–Protein Interactions Using SPR” (Biosensors, 2022)
# Experiments:
# [1] = target: T1, hedgehog protein, HhC (C-terminal cholesterol-binding domain) (Drosophila melanogaster, UniProt Q02936, H329A); test: SPR, biotinylated cholesterol immobilized on streptavidin chip, […] Langmuir fit
# T1 construct: gene hh; HhC autoprocessing mutant, C-terminal fusion to SUMO-HIS8
# PTP1B = target: T2, PTP1B (Homo sapiens, UniProt P18031); test: biochemical
# T2 construct: gene PTPN1
# T2 sequence (P18031 1-321): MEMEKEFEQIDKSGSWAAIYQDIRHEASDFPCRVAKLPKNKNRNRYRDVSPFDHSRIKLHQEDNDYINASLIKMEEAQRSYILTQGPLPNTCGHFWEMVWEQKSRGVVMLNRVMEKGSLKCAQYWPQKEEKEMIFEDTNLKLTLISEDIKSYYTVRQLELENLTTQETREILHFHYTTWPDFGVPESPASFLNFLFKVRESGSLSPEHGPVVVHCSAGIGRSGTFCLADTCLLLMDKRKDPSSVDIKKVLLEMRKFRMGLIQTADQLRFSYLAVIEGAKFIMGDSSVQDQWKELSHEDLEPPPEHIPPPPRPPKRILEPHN
# T1 sequence (Q02936 258-471 H329A): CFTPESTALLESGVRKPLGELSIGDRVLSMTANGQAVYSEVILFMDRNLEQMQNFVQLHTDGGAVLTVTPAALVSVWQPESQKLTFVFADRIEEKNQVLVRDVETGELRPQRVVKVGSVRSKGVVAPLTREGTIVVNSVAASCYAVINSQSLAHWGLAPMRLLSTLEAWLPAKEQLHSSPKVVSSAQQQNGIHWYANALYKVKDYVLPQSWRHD
smiles,measurement,setting,value
CC(CCC[C@@H](C)[C@H]1CC[C@H]2[C@@H]3CC=C4C[C@@H](O)CC[C@]4(C)[C@H]3CC[C@]12C)c1cn(CCOCCOCCOCCNC(=O)CCCCC2SCC3NC(=O)NC32)nn1 (some centres unmarked) [biotinylated cholesterol],Kd,[1],~0.014 µM
same,Kd,PTP1B,~0.085 µM
